The text below walks through data of patent publication US8519007B2, “Use certain diterpene compounds in the treatment of androgen receptor-associated diseases” (Academia Sinica, priority 2008, dated 2013).

In data set [1] the test system is LNCaP cells. As to the kind of experiment: Morphology of treated cells. The settings on record: 10 to 50 μM, 48 h.
From the text: The long-term effect of HDHS on the malignant growth of AR-dependent (22Rv1, and LNCaP) and AR-independent (PC-3) PCa cells was examined by colony-forming growth assay.
Data set [2] relates to 22Rv1 cells. As to the kind of experiment: Cell cycle distribution by propidium iodide flow cytometry. The settings on record: 48 h. The class given is cell-based, human. (Flow cytometry measures light scatter and fluorescence of single cells or particles in a stream.)
Method: The cell cycle of treated cells was examined by flow cytometry after cellular staining with propidium iodide. 5×10^5 cells were seeded into 6-well multidishes with 10% FBS culture medium for 48 h. […] Cells were trypsinized thereafter, washed twice with cold PBS, and centrifuged. The pellet was suspended in cold PBS and 1 mL of 70% ethanol at 4° C. overnight, washed twice with cold PBS, and digested with RNase (100 μg/mL final concentration) and stained with propidium iodide (10 μg/mL final concentration) for 30 min and analyzed by flow cytometry (EPICS XL-MCL, Beckman Coulter, Inc., Fullerton, Calif.).
The target of data set [3] is T1, androgen receptor (Homo sapiens, UniProt P10275).
T1 sequence (P10275 with tags, fused parts or gaps DUP590-628/H875Y): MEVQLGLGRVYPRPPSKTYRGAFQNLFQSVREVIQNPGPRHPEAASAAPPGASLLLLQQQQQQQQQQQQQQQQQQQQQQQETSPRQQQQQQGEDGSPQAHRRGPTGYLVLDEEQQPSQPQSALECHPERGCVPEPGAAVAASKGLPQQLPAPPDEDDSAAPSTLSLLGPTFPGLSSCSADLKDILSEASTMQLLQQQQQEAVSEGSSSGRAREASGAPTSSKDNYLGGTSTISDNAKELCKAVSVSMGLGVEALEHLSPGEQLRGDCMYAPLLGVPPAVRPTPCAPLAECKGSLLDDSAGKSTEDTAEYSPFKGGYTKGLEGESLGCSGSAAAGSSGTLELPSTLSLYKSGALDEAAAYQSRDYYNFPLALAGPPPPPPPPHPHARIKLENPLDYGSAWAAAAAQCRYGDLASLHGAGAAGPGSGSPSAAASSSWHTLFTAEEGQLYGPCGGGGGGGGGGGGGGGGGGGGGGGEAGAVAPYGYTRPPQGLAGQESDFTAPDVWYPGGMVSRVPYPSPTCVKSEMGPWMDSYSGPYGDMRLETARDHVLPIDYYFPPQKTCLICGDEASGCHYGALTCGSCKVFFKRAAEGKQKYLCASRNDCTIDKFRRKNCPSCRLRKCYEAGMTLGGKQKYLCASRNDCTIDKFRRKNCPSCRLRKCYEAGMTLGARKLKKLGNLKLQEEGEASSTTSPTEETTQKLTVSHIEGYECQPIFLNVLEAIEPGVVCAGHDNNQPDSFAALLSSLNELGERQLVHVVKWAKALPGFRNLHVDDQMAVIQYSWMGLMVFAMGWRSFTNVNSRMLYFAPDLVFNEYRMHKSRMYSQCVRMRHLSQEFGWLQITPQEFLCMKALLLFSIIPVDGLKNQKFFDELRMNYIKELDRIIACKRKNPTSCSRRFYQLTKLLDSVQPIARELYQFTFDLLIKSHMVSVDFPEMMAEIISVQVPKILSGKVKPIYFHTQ
As to the kind of experiment: PSA promoter luciferase reporter assay in 103E cells (AR transcriptional activity).
Method: PC-3 and NIH-3T3 were cultured in DMEM (Hyclone) supplemented with 10% FBS. Cultures were maintained in a humidified incubator at 37° C. in 5% CO2/air.
Cells were treated with various compounds for a period of 20 h and luciferase activity was measured using a luciferase reporter gene assay system (Promega).

Data set [4] relates to 22Rv1 cells. As to the kind of experiment: Apoptosis by nucleosome release (cytoplasmic DNA fragmentation). The class given is cell-based, human. As to conditions: 22Rv1, 5-10 μM, 24 h.
Method: A, Apoptosis of cytoplasmic DNA fragmentation in different cell lines treated with vehicle or indicated concentrations of HDHS for 24 h. Difference between the indicated pair of treatments was tested for statistic significance as marked. *, P≦0.05; **, P≦0.01.
In light of the increase of sub-G1 populations by HDHS, apoptosis in treated cells was further analyzed via measurement of nucleosome release in PCa cells.
Data set [5] concerns NIH-3T3 cells. The experiment in a line: MTT cell viability. The class given is cell-based. The settings on record: NIH-3T3, concentrations above 10 μM, 48 h, versus LNCaP and 22Rv1. The procedure:
The effects of HDHS on cell viability in various PCa cell lines including androgen-dependent LNCaP, androgen-responsive 22Rv1 cells, and androgen-independent PC-3 cells were tested and compared with untransformed fibroblast NIH-3T3 cells. PCa or NIH-3T3 cells (1×10^4 cells) were seeded into 96-well microtiter plates with 10% FBS culture medium. After 24 h, cells were incubated in 10% FBS medium containing different concentrations of HDHS or equivalent amounts of vehicle alone as control for 48 h. Cell viability was then determined by MTT assay, which quantitatively measures the metabolic activity of living cells.

The test system of data set [6] is 22Rv1 tumors. The experiment in a line: 22Rv1 xenograft in athymic nude mice, oral HDHS. In kind it is in vivo. The procedure:
22Rv1 cells were derived from a castration-relapsed tumor of human PCa origin that represents a clinical limitation for hormonal therapy (Nagabhushan M, et al., Cancer Res 1996;56:3042-6; Sramkoski R M, et al., In Vitro Cell Dev Biol Anim 1999; 35:403-9). The potential of HDHS to inhibit growth of PCa in vivo was tested in athymic nude mice with 22Rv1 tumors. […]. All animal work was done in accordance with the protocol approved by the Institutional Animal Care and Use Committee, Academia Sinica. Aliquots of 1×10^6 22Rv1 cells were suspended in 1:1 PBS mixed with Matrigel (BD Biosciences, San Jose, Calif.) and were subcutaneously inoculated into the right flank of each mouse. Once the tumor grew to palpable size one week after 22Rv1 cells were implanted, mice were stochastically assigned to three groups (n=7) that received vehicle control or HDHS at different dosages (0.5 and 2.5 mg/kg/day), by gavage in 0.2 mL of PBS containing 10% DMSO. Tumors were measured twice per week using calipers and their volumes calculated using a standard formula, as follows: width2×length×0.5. Body weight was measured weekly. Mice received 24 doses, and 24 h after the last dose they were sacrificed to harvest plasma and tumors. A portion of each tumor was snap-frozen in liquid nitrogen and stored at −80° C. until needed for western blot analysis of relevant biomarkers, and the remainder was fixed in 10% formalin overnight.
Immunohistochemistry was conducted to examine the in vivo effects of HDHS on proliferation and apoptosis in tumor xenografts. The paraffin-embedded tumor sections (4 μm thickness) were heat immobilized, deparaffinized using xylene and rehydrated in a graded series of ethanol with a final wash in distilled water. Antigen retrieval was done in TARGET RETRIEVAL SOLUTION (DakoCytomation, Glostrup, Denmark) in a DECLOAKING CHAMBER (Biocare Medical, Concord, Calif.) followed by quenching of endogenous peroxidase activity. Sections were then incubated with specific primary antibodies, including mouse monoclonal anti-Ki-67 (DakoCytomation) and rabbit polyclonal anti-AR (Santa Cruz) at 4° C. overnight in a humidity chamber. An ENVISION system (DakoCytomation) was used to detect the reaction products. In situ detection of apoptotic cells was carried out using terminal deoxynucleotidyl transferase-mediated nick-end labeling (TUNEL assay) reaction mixture according to the manufacturer's protocol (Chemicon).

Where [7] appears, read: 0.5 and 2.5 mg/kg/day oral, 24 days.

On to `CC(C)c1cc2c(cc1O)[C@@]1(C)CCCC(C)(C)C1=C(O)C2=O` [Compound 2, 6,12-dihydroxyabieta-5,8,11,13-tetraen-7-one], for which, in data set [1], the “morphology of treated cells” value was “cell rounding and surface blebbing”. Further, in data set [2] (22Rv1, 2.5 μM), the “G0-G1 phase cell population” value is given as 54.5 ± 2.5 %, the “G2-M phase cell population” value came out at 24.8 ± 2.4 %, the “S phase cell population” value was 11.2 ± 1.9 % and the “Sub-G1 phase cell population” value is listed as 2.2 ± 0.8 %. Also, in data set [2] (22Rv1, 5 μM), the “G0-G1 phase cell population” value is recorded as 57.9 ± 1.9 %, the “G2-M phase cell population” value stood at 23.7 ± 2.7 %, the “S phase cell population” value was determined as 8.0 ± 1.4 % and the “Sub-G1 phase cell population” value was found to be 3.8 ± 0.9 %. In data set [2] (22Rv1, 10 μM), the “G0-G1 phase cell population” value was determined as 48.4 ± 2.9 %, the “G2-M phase cell population” value was 24.5 ± 2.0 %, the “S phase cell population” value worked out at 5.7 ± 2.2 % and the “Sub-G1 phase cell population” value is 14.4 ± 3.7 %. The “concentration achieving complete inhibition of PSA promoter activity” value in data set [3] (10 nmol/L DHT, 24 h) is reported as “greater than 10 μM”. The “Inhibitionmax (%) of AR activity” value in data set [3] (maximal inhibition at 10 μM) is given as 101 ± 4% (10 μM). The IC50 in data set [3] (read-out: IC50 for inhibiting DHT-induced PSA-luciferase reporter, cotreated with 10 nmol/L DHT, 24 h) is 4.8 µM. Also, the “apoptosis (nucleosome release)” value in data set [4] is “significantly induced”. Further, the “cell viability (MTT)” value in data set [5] was “far less pronounced”. Besides, in data set [6] (setting [7]), the “Ki-67 positive proliferative tumor cells” value is “decreased the number of cells positively stained for Ki-67” and the “TUNEL positive apoptotic tumor cells” value is recorded as “increase of apoptotic tumor cells”. In data set [6] (HDHS-treated 22Rv1 tumors), the “AR expression in tumor cells (immunohistochemistry)” value is recorded as “prevalent decrease of AR expression”. Further, in data set [6] (nude mice, 0.5 and 2.5 mg/kg/day by gavage, 24 doses), the “tumor growth of 22Rv1 xenograft” value is recorded as “significantly retarded tumor growth”. Moreover, the “symptoms of toxicity (loss of appetite, decreased locomotion, signs of illness)” value in data set [6] (nude mice, 24-day regimen, oral) was “did not exhibit any symptoms of toxicity”. The “body weight of tested mice” value in data set [6] (up to 2.5 mg/kg per day, oral) is recorded as “not influenced”.
